Source: patent US20240279207A1, “SUBSTITUTED ACYL SULFONAMIDES FOR TREATING CANCER” (The Broad Institute, Inc., priority 2020, published 2024)
Read-outs that look alike come from different tables or passages of the source.

How the values were obtained:
[1] = system: ESR1 transcription in MVLN cells; assay: MVLN reporter assay: repression of ESR1 transcription (luciferase signal); format: cell-based; conditions: luciferase signal after 24 h, read-out: MVLN reporter assay, IC50 [M] (arithmetic mean)
Outline: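 MVLN cells, expressing ER and stably carrying a vitellogenin A2 ERE-luciferase reporter, treated with compound in duplicate; luciferase read after 24 h with Steadylite plus. Cell density checked in parallel by Alamar Blue fluorescence (530/590 nm, 2 h) before the luciferase read.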

ZR-75-1 cells = assay: ZR-75-1 proliferation assay; format: cell-based; conditions: Alamar Blue, read-out: ZR75-1 proliferation assay, EC50 [M] (arithmetic mean)
Text: (§1) For compound characterization cell survival assays were routinely run in two cell lines. ZR-75-1 is a breast carcinoma cell line containing a focal KAT6A amplification and high KAT6A protein expression. Proliferation of this cell line is inhibited upon treatment with KAT6A inhibitors. As a negative control cell line MDA-MB-436 were used. These cells carry a […] deletion of the KAT6A gene, have a low KAT6A protein expression and are not growth inhibited upon treatment with KAT6A inhibitors.
(§2) For measurements cell lines were plated at the below indicated concentration per […] in 96-well plates in a humidified incubator at 37° C. and 5% CO2.
ZR-75-1 (ATCC, CRL-1500; breast carcinoma); 3000 cells per well; culture medium: RPMI 1640 (Biochrom #FG 1215) medium containing 2.5% FBS (Biochrom #S0615).
(§3) Each sample was prepared as triplicate and rim wells were excluded. Plates were incubated at 37° C. and 5% CO2 for 144 h. Cell viability was measured by adding 10 μL of Alamar Blue Reagent (Invitrogen #DAL 1100) and plates were incubated for 2 h at 37° C. and 5% CO2. Fluorescence was measured at 590 nm wavelength with a Tecan Spark or Victor X3 MTP-Reader (PerkinElmer).

[2] = molecular target: T1, Recombinant human GST-tagged Kat6b protein (431-end) (Homo sapiens, UniProt Q8WYB5); assay: Kat6b activity assay (TR-FRET, acetylation of Histone-H4-derived peptide); format: biochemical; conditions: 30 mins at 22° C., 500 nM H4 peptide, 600 nM Acetyl Coenzyme A, read-out: KAT6B activity assay IC50 [mol/l] (arithmetic mean)
T1 construct: Kat6b protein (431-end, N-terminal GST-tag); GST (N)
T1 sequence (Q8WYB5 431-2073): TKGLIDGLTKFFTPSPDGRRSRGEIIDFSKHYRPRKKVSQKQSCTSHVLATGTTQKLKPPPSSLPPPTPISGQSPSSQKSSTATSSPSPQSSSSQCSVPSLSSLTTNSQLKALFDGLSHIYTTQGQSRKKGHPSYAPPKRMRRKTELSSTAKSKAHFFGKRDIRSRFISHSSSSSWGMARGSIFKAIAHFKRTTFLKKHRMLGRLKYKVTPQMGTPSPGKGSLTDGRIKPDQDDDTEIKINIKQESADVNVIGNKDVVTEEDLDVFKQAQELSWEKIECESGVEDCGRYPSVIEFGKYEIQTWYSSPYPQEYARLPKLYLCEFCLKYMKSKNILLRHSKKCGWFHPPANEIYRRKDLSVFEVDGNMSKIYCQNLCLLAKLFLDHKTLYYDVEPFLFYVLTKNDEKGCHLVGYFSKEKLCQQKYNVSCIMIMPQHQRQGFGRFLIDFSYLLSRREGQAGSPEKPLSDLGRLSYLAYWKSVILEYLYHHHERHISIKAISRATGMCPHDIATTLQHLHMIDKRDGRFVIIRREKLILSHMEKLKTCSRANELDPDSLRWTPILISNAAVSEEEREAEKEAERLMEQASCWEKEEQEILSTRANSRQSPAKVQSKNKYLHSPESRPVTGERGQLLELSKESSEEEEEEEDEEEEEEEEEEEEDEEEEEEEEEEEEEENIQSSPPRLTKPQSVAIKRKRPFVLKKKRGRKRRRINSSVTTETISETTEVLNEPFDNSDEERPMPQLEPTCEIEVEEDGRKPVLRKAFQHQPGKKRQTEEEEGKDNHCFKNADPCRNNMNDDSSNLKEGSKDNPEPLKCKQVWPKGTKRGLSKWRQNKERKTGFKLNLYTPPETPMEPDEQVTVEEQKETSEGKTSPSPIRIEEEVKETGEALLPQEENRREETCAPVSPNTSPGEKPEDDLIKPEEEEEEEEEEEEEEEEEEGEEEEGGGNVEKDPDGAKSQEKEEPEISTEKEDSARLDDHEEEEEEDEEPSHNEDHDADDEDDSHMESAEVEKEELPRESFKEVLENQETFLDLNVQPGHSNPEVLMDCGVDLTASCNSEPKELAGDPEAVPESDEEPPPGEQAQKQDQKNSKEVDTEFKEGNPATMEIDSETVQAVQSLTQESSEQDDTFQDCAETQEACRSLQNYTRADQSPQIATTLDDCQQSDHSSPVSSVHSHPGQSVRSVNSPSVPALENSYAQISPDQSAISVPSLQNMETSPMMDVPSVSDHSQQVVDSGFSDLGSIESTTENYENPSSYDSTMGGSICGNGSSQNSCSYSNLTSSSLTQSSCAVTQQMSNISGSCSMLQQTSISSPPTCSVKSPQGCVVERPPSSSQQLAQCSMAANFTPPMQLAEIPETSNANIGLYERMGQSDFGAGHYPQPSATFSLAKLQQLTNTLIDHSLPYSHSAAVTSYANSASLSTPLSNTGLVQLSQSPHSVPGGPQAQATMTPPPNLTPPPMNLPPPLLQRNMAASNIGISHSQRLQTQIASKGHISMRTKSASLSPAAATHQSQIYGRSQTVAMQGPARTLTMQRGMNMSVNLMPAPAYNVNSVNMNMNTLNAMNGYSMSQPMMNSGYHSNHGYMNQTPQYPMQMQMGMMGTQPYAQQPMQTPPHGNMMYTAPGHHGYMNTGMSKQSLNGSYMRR
Description: Kat6b inhibitory activities of the compounds described in the present invention were quantified using a Fluorescence Resonance Energy Transfer (TR-FRET) assay which measures acetylation of a synthetic, biotinylated Histone-H4-derived peptide by the enzyme.
In this case 50 nl DMSO were used instead of compounds. […] IC50 values were determined by regression analysis based on a 4 parameter equation (minimum, maximum, ICM, Hill; Y=Max+(Min−Max)/(1+(X/ICso) Hill) using the Screener Software (Genedata).

LCLC97TM1 = LCLC97TM1 proliferation assay; format: cell-based; conditions: read-out: LCLC97TM1 proliferation assay, EC50 [M] (arithmetic mean)
[3] = molecular target: T2, Recombinant human His-tagged Kat6a protein (amino acids 194-810) (Homo sapiens, UniProt Q92794); assay: Kat6a activity assay (TR-FRET, acetylation of Histone-H4-derived peptide); format: biochemical; conditions: 60 mins at 22° C., 220 nM H4 peptide, 600 nM Acetyl Coenzyme A, read-out: KAT6A - DPF/HAT domain IC50 [mol/l] (arithmetic mean)
T2 construct: Kat6a protein (amino acids 194-810); His
T2 sequence (Q92794 194-810): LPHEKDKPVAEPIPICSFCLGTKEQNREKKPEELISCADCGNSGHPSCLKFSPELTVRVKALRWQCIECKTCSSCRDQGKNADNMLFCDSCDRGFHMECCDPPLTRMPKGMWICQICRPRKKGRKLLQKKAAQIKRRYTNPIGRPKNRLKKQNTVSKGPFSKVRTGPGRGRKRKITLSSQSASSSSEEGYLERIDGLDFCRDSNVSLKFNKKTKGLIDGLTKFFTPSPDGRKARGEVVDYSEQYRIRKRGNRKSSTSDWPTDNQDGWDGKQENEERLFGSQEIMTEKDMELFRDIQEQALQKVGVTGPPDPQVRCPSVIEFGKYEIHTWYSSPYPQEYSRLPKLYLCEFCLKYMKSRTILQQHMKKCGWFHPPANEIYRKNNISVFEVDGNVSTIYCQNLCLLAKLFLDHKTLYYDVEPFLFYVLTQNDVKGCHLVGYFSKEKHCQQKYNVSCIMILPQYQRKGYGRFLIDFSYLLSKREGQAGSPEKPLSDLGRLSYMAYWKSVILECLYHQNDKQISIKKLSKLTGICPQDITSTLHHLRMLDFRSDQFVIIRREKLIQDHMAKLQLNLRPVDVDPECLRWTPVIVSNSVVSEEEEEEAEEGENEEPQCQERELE

MDA-MB-436 cells = assay: MDA-MB-436 proliferation assay (negative control cell line); format: cell-based; conditions: 144 h, Alamar Blue, read-out: MDA-MB-436 proliferation assay, EC50 [M] (arithmetic mean)
Text: as §1, §2
MDA-MB-436 (CLS, 300278; breast adenocarcinoma); 3000 cells per well; culture medium: DMEM/Ham's F12 (Biochrom #FG 4815) medium containing 2.5% FBS (Biochrom #S0615).
as §3

[4] = Homo sapiens, LCLC-97TM1, LCLC97TM1

Compound | IC50 ([1]; Homo sapiens, MVLN, 24 h) | EC50 (ZR-75-1 cells; Homo sapiens, ZR-75-1, 144 h) | IC50 [2] | EC50 (LCLC97TM1; [4]) | IC50 [3] | EC50 (MDA-MB-436 cells; Homo sapiens) | IC50 [1] | EC50 (ZR-75-1 cells; 144 h) | EC50 (LCLC97TM1; LCLC97TM1) | EC50 (MDA-MB-436 cells)
CC(C)(C)c1ccc(OC2CC2)c(S(=O)(=O)NC(=O)c2cc3c(F)cc(N4CCC4)cc3o2)c1 [Example 224, 6-(Azetidin-1-yl)-N-[(5-(tert-butyl)-2-cyclopropoxyphenyl)sulfonyl]-4-fluorobenzofuran-2-carboxamide] | 2.76e-08 M | 7.5e-08 M | 0.00982 µM | 1.14e-07 M | 0.00372 µM | 1.77e-05 M | – | – | – | –
COc1ccc(-c2cn(C)nc2C)cc1S(=O)(=O)NC(=O)c1cc2c(F)cc(N3CCC3)cc2o1 [Example 195, 6-(Azetidin-1-yl)-N-[5-(1,3-dimethyl-1H-pyrazol-4-yl)-2-methoxybenzene-1-sulfonyl]-4-fluoro-1-benzofuran-2-carboxamide] | 1.11e-07 M | 1.99e-07 M | 0.0201 µM | 8.37e-07 M | 0.00507 µM | > 2e-05 M | – | – | – | –
O=C(NS(=O)(=O)c1ccccc1-c1ccccc1)c1cc2ccc(N3CCC3)cc2o1 [Example 26, 6-(Azetidin-1-yl)-N-([1,1′-biphenyl]-2-sulfonyl)-1-benzofuran-2-carboxamide] | 3.85e-07 M | 5.06e-07 M | 0.292 µM | 3.9e-06 M | 0.145 µM | > 2e-05 M | – | – | – | –
CCOc1ccccc1S(=O)(=O)NC(=O)c1cc2ccc(N3CC(F)C3)cc2o1 [Example 107, N-(2-Ethoxybenzene-1-sulfonyl)-6-(3-fluoroazetidin-1-yl)-1-benzofuran-2-carboxamide] | 1.33e-07 M | 4.1e-07 M | 0.853 µM | 9.16e-07 M | 0.275 µM | – | – | – | – | –
CCOc1ccccc1S(=O)(=O)NC(=O)c1cc2c(F)cc(N3CCC3)cc2o1 [Example 126, Sodium [6-(azetidin-1-yl)-4-fluoro-1-benzofuran-2-carbonyl](2-ethoxybenzene-1-sulfonyl)azanide] | – | – | 0.285 µM | – | 0.0565 µM | – | 9.43e-08 M | 3.07e-07 M | 1.12e-06 M | > 2e-05 M
CC(C)(C)c1ccc(OCc2ccccc2)c(S(=O)(=O)NC(=O)c2cc3c(F)cc(N4CCC4)cc3o2)c1 [Example 225, 6-(Azetidin-1-yl)-N-[(2-(benzyloxy)-5-(tert-butyl)phenyl]sulfonyl)-4-fluorobenzofuran-2-carboxamide] | 2.76e-08 M | 7.5e-08 M | 0.00982 µM | 1.14e-07 M | 0.00372 µM | 1.77e-05 M | – | – | – | –
CC(C)(C)c1ccc(OC2CCC2)c(S(=O)(=O)NC(=O)c2cc3c(F)cc(N4CCC4)cc3o2)c1 [Example 228, 6-(Azetidin-1-yl)-N-[(5-(tert-butyl)-2-cyclobutoxyphenyl)sulfonyl]-4-fluorobenzofuran-2-carboxamide] | 2.39e-08 M | 1.16e-07 M | 0.0134 µM | 1.67e-07 M | 0.00257 µM | > 2e-05 M | – | – | – | –
CCOc1ccccc1S(=O)(=O)NC(=O)c1cc2c(F)cc(N3CCC3)cc2o1 [Example 2, 6-(Azetidin-1-yl)-N-(2-ethoxybenzene-1-sulfonyl)-4-fluoro-1-benzofuran-2-carboxamide] | 5.54e-08 M | 1.64e-07 M | 0.0952 µM | – | 0.0452 µM | > 2e-05 M | – | – | 3.38e-07 M | –
CC(C)c1ccc(OCC2CC2)c(S(=O)(=O)NC(=O)c2cc3c(F)cc(N4CCC4)cc3o2)c1 [Example 214, 6-(azetidin-1-yl)-N-[2-(cyclopropylmethoxy)-5-isopropyl-phenyl]sulfonyl-4-fluoro-benzofuran-2-carboxamide] | 2.43e-08 M | 4.47e-07 M | 0.0203 µM | 5.77e-07 M | 0.00391 µM | – | – | – | – | –
CCOc1ccccc1S(=O)(=O)NC(=O)c1cc2c(F)cc(N3CCC3C(F)F)cc2o1 (racemic) [Example 163, 6-[2-(Difluoromethyl)azetidin-1-yl]-N-(2-ethoxybenzene-1-sulfonyl)-4-fluoro-1-benzofuran-2-carboxamide (rac)] | 3.67e-06 M | 6.67e-06 M | – | > 2e-05 M | 0.862 µM | > 2e-05 M | – | – | – | –
CCOc1ccc(C)cc1S(=O)(=O)NC(=O)c1cc2c(F)cc(N3CCC3)cc2o1 [Example 6, 6-(Azetidin-1-yl)-N-(2-ethoxy-5-methylbenzene-1-sulfonyl)-4-fluoro-1-benzofuran-2-carboxamide] | 7.45e-08 M | 3.28e-08 M | – | 3.12e-07 M | 0.0349 µM | > 2e-05 M | – | – | – | –
CCc1ccc(OC2CCCC2)c(S(=O)(=O)NC(=O)c2cc3c(F)cc(N4CCC4)cc3o2)c1 [Example 3, 6-(Azetidin-1-yl)-N-[2-(cyclopentyloxy)-5-ethylbenzene-1-sulfonyl]-4-fluoro-1-benzofuran-2-carboxamide] | 5.25e-08 M | 2.32e-07 M | – | 1.11e-06 M | 0.0081 µM | > 2e-05 M | – | – | – | –
Cc1ccc2cccc(S(=O)(=O)NC(=O)c3cc4c(F)cc(N5CCC5C(C)(C)O)cc4o3)c2n1 (racemic) [Example 161, 4-Fluoro-6-[2-(1-hydroxy-1-methyl-ethyl)azetidin-1-yl]-N-[(2-methyl-8-quinolyl)sulfonyl]benzofuran-2-carboxamide (rac)] | 5.92e-06 M | 7.56e-06 M | – | > 2e-05 M | 1.09 µM | > 2e-05 M | – | – | – | –
Cc1cc2c(c(S(=O)(=O)NC(=O)c3cc4c(F)cc(N5CCC5)cc4o3)c1C)OC(C)(C)C2 [Example 204, 6-(Azetidin-1-yl)-4-fluoro-N-(2,2,5,6-tetramethyl-2,3-dihydro-1-benzofuran-7-sulfonyl)-1-benzofuran-2-carboxamide] | 1.79e-07 M | 3.4e-07 M | – | 8.36e-07 M | 0.0077 µM | 1.6e-06 M | – | – | – | –
O=C(NS(=O)(=O)c1c(OCc2ccccc2)cccc1OC1CCC1)c1cc2c(F)cc(N3CCC3)cc2o1 [Example 5, 6-(Azetidin-1-yl)-N-[2-(benzyloxy)-6-(cyclobutyloxy)benzene-1-sulfonyl]-4-fluoro-1-benzofuran-2-carboxamide] | 6.43e-08 M | 3.57e-06 M | – | 9.88e-06 M | 0.00142 µM | > 2e-05 M | – | – | – | –
O=C(NS(=O)(=O)c1cccc2ccc(Cl)nc12)c1cc2c(F)cc(N3CC(F)C3)cc2o1 [Example 154, N-(2-Chloroquinoline-8-sulfonyl)-4-fluoro-6-(3-fluoroazetidin-1-yl)-1-benzofuran-2-carboxamide] | 7.11e-08 M | 4.95e-08 M | – | 2.25e-07 M | 0.0134 µM | > 2e-05 M | – | – | – | –
CC(C)(C)c1ccc(OCC2CC2)c(S(=O)(=O)NC(=O)c2cc3c(F)cc(N4CCC4)cc3o2)c1 [Example 226, 6-(Azetidin-1-yl)-N-[(5-(tert-butyl)-2-(cyclopropylmethoxy)phenyl)sulfonyl]-4-fluorobenzofuran-2-carboxamide] | 5.37e-08 M | 2.78e-08 M | – | 4.63e-08 M | 0.00179 µM | > 2e-05 M | – | – | – | –
COc1ccc(C2=CCOCC2)cc1S(=O)(=O)NC(=O)c1cc2c(F)cc(N3CCC3)cc2o1 [Example 196, 6-(azetidin-1-yl)-N-[5-(3,6-dihydro-2H-pyran-4-yl)-2-methoxybenzene-1-sulfonyl]-4-fluoro-1-benzofuran-2-carboxamide] | 4.72e-08 M | 1.44e-07 M | – | 8.1e-07 M | 0.00825 µM | > 2e-05 M | – | – | – | –
